Experimental data: PubChem BioAssay (NCI)
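Dose response: 5 concentrations. Exposure: 48 h. Format: 96-well plates. Endpoint: linear interpolation; highest concentration if not reached. Here, GI50 denotes the concentration required for 50% inhibition of growth. TGI denotes the concentration required for complete inhibition of growth.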

Experiments:
Experiment in all cases: inhibition of tumour cell growth, NCI panel, 48 h
HCC-2998 colon = test system: HCC-2998 colon
HS 578T breast = test system: HS 578T breast
LOX IMVI melanoma = test system: LOX IMVI melanoma
MCF7 breast = test system: MCF7 breast
BT-549 breast = test system: BT-549 breast
M14 melanoma = test system: M14 melanoma
CCRF-CEM leukemia = test system: CCRF-CEM leukemia
OVCAR-8 ovarian = test system: OVCAR-8 ovarian
MDA-MB-435 = test system: MDA-MB-435
786-0 renal = test system: 786-0 renal
CAKI-1 renal = test system: CAKI-1 renal
SW-620 colon = test system: SW-620 colon
OVCAR-5 ovarian = test system: OVCAR-5 ovarian
SF-295 CNS = test system: SF-295 CNS
HOP-62 NSCLC = test system: HOP-62 NSCLC
SK-MEL-2 melanoma = test system: SK-MEL-2 melanoma
MDA-MB-231 breast = test system: MDA-MB-231 breast
SR leukemia = test system: SR leukemia
A549 NSCLC = test system: A549 NSCLC
RPMI-8226 leukemia = test system: RPMI-8226 leukemia
SK-MEL-5 melanoma = test system: SK-MEL-5 melanoma
TK-10 renal = test system: TK-10 renal
NCI-H23 lung = test system: NCI-H23 lung
RXF 393 renal = test system: RXF 393 renal
IGROV1 ovarian = test system: IGROV1 ovarian
A498 renal = test system: A498 renal
OVCAR-4 ovarian = test system: OVCAR-4 ovarian
HOP-92 NSCLC = test system: HOP-92 NSCLC
KM12 colon = test system: KM12 colon
MALME-3M melanoma = test system: MALME-3M melanoma
NCI-H226 lung = test system: NCI-H226 lung
HCT-116 colon = test system: HCT-116 colon
U251 CNS = test system: U251 CNS
SK-OV-3 ovarian = test system: SK-OV-3 ovarian
DU-145 prostate = test system: DU-145 prostate
SNB-19 CNS = test system: SNB-19 CNS
NCI-H522 lung = test system: NCI-H522 lung
SF-268 CNS = test system: SF-268 CNS
COLO 205 colon = test system: COLO 205 colon
EKVX NSCLC = test system: EKVX NSCLC
SF-539 CNS = test system: SF-539 CNS
K-562 leukemia = test system: K-562 leukemia
UO-31 renal = test system: UO-31 renal
UACC-62 melanoma = test system: UACC-62 melanoma
PC-3 prostate = test system: PC-3 prostate
ACHN renal = test system: ACHN renal
MOLT-4 leukemia = test system: MOLT-4 leukemia
HCT-15 colon = test system: HCT-15 colon
NCI/ADR-RES ovarian = test system: NCI/ADR-RES ovarian
UACC-257 melanoma = test system: UACC-257 melanoma
SN12C renal = test system: SN12C renal
NCI-H460 lung = test system: NCI-H460 lung
OVCAR-3 ovarian = test system: OVCAR-3 ovarian
HT29 colon = test system: HT29 colon
SNB-75 CNS = test system: SNB-75 CNS
HL-60(TB) leukemia = test system: HL-60(TB) leukemia
T-47D breast = test system: T-47D breast

Compound: CCCCNCCCCCNc1cc(OC)cc2cccnc12
- GI50 (HCC-2998 colon): 3.1 µM
- TGI (HCC-2998 colon): 16.4 µM
- GI50 (HS 578T breast): 21.7 µM
- TGI (HS 578T breast): 47.9 µM
- GI50 (LOX IMVI melanoma): 34.8 µM
- TGI (LOX IMVI melanoma): > 100 µM
- GI50 (MCF7 breast): > 100 µM
- TGI (MCF7 breast): > 100 µM
- GI50 (BT-549 breast): 14.5 µM
- TGI (BT-549 breast): 28.8 µM
- GI50 (M14 melanoma): 14.9 µM
- TGI (M14 melanoma): 28.5 µM
- GI50 (CCRF-CEM leukemia): 28.1 µM
- TGI (CCRF-CEM leukemia): 74.2 µM
- GI50 (OVCAR-8 ovarian): 17.8 µM
- TGI (OVCAR-8 ovarian): 37.6 µM
- GI50 (MDA-MB-435): 19.8 µM
- TGI (MDA-MB-435): 41.4 µM
- GI50 (786-0 renal): 14.6 µM
- TGI (786-0 renal): 28.2 µM
- GI50 (CAKI-1 renal): 18.4 µM
- TGI (CAKI-1 renal): 37.7 µM
- GI50 (SW-620 colon): 19.2 µM
- TGI (SW-620 colon): 39.4 µM
- GI50 (OVCAR-5 ovarian): 15.1 µM
- TGI (OVCAR-5 ovarian): 30.9 µM
- GI50 (SF-295 CNS): 28.4 µM
- TGI (SF-295 CNS): 84.9 µM
- GI50 (HOP-62 NSCLC): 15.1 µM
- TGI (HOP-62 NSCLC): 30.1 µM
- GI50 (SK-MEL-2 melanoma): 19.6 µM
- TGI (SK-MEL-2 melanoma): 37.5 µM
- GI50 (MDA-MB-231 breast): 23.2 µM
- TGI (MDA-MB-231 breast): 50.8 µM
- GI50 (SR leukemia): 28.6 µM
- TGI (SR leukemia): > 100 µM
- GI50 (A549 NSCLC): 20.7 µM
- TGI (A549 NSCLC): 51.3 µM
- GI50 (RPMI-8226 leukemia): 15.5 µM
- TGI (RPMI-8226 leukemia): 39.8 µM
- GI50 (SK-MEL-5 melanoma): 12.6 µM
- TGI (SK-MEL-5 melanoma): 27.6 µM
- GI50 (TK-10 renal): 23.4 µM
- TGI (TK-10 renal): 44.5 µM
- GI50 (NCI-H23 lung): 15.9 µM
- TGI (NCI-H23 lung): 31.7 µM
- GI50 (RXF 393 renal): 12.3 µM
- TGI (RXF 393 renal): 27.9 µM
- GI50 (IGROV1 ovarian): 14.6 µM
- TGI (IGROV1 ovarian): 29.1 µM
- GI50 (A498 renal): 16.2 µM
- TGI (A498 renal): 38 µM
- GI50 (OVCAR-4 ovarian): 26.2 µM
- TGI (OVCAR-4 ovarian): > 100 µM
- GI50 (HOP-92 NSCLC): 2.77 µM
- TGI (HOP-92 NSCLC): 23 µM
- GI50 (KM12 colon): 39.3 µM
- TGI (KM12 colon): > 100 µM
- GI50 (MALME-3M melanoma): 18 µM
- TGI (MALME-3M melanoma): 42.9 µM
- GI50 (NCI-H226 lung): 23.8 µM
- TGI (NCI-H226 lung): 64.5 µM
- GI50 (HCT-116 colon): 13.6 µM
- TGI (HCT-116 colon): 26.6 µM
- GI50 (U251 CNS): 42.6 µM
- TGI (U251 CNS): > 100 µM
- GI50 (SK-OV-3 ovarian): 18.4 µM
- TGI (SK-OV-3 ovarian): 35.9 µM
- GI50 (DU-145 prostate): 23.1 µM
- TGI (DU-145 prostate): 56.3 µM
- GI50 (SNB-19 CNS): 13.8 µM
- TGI (SNB-19 CNS): 31.5 µM
- GI50 (NCI-H522 lung): 17.5 µM
- TGI (NCI-H522 lung): 33.8 µM
- GI50 (SF-268 CNS): > 100 µM
- TGI (SF-268 CNS): > 100 µM
- GI50 (COLO 205 colon): 17.2 µM
- TGI (COLO 205 colon): 33.8 µM
- GI50 (EKVX NSCLC): 29.6 µM
- TGI (EKVX NSCLC): 99.2 µM
- GI50 (SF-539 CNS): 18.3 µM
- TGI (SF-539 CNS): 34 µM
- GI50 (K-562 leukemia): 20.4 µM
- TGI (K-562 leukemia): 44.8 µM
- GI50 (UO-31 renal): 13.4 µM
- TGI (UO-31 renal): 27.2 µM
- GI50 (UACC-62 melanoma): 19.9 µM
- TGI (UACC-62 melanoma): 40.3 µM
- GI50 (PC-3 prostate): 15.2 µM
- TGI (PC-3 prostate): 34.7 µM
- GI50 (ACHN renal): 45.3 µM
- TGI (ACHN renal): > 100 µM
- GI50 (MOLT-4 leukemia): 18 µM
- TGI (MOLT-4 leukemia): 41.1 µM
- GI50 (HCT-15 colon): 47.9 µM
- TGI (HCT-15 colon): > 100 µM
- GI50 (NCI/ADR-RES ovarian): 17.2 µM
- TGI (NCI/ADR-RES ovarian): 36.4 µM
- GI50 (UACC-257 melanoma): 16.1 µM
- TGI (UACC-257 melanoma): 32.2 µM
- GI50 (SN12C renal): 36.5 µM
- TGI (SN12C renal): > 100 µM
- GI50 (NCI-H460 lung): 89.4 µM
- TGI (NCI-H460 lung): > 100 µM
- GI50 (OVCAR-3 ovarian): 19 µM
- TGI (OVCAR-3 ovarian): 45.5 µM

Compound: Clc1ccc(N2N=C(c3cccc(Nc4ccncc4)c3)CC2c2ccc(Br)cc2)cc1 (stereo not drawn)
- GI50 (CCRF-CEM leukemia): 3.43 µM
- TGI (CCRF-CEM leukemia): > 100 µM
- GI50 (MDA-MB-435): 1.65 µM
- TGI (MDA-MB-435): 3.08 µM
- GI50 (CAKI-1 renal): 1.52 µM
- TGI (CAKI-1 renal): 2.9 µM
- GI50 (SW-620 colon): 1.73 µM
- TGI (SW-620 colon): 3.51 µM
- GI50 (OVCAR-5 ovarian): 1.66 µM
- TGI (OVCAR-5 ovarian): 3.1 µM
- GI50 (SF-295 CNS): 1.77 µM
- TGI (SF-295 CNS): 3.2 µM
- GI50 (HT29 colon): 1.91 µM
- TGI (HT29 colon): 4.48 µM
- GI50 (RXF 393 renal): 1.62 µM
- TGI (RXF 393 renal): 3.02 µM
- GI50 (IGROV1 ovarian): 1.8 µM
- TGI (IGROV1 ovarian): 3.41 µM
- GI50 (A498 renal): 1.07 µM
- TGI (A498 renal): 2.3 µM
- GI50 (OVCAR-4 ovarian): 1.83 µM
- TGI (OVCAR-4 ovarian): 3.36 µM
- GI50 (HOP-92 NSCLC): 1.39 µM
- TGI (HOP-92 NSCLC): 2.85 µM
- GI50 (KM12 colon): 1.73 µM
- TGI (KM12 colon): 3.27 µM
- GI50 (SK-OV-3 ovarian): 2 µM
- TGI (SK-OV-3 ovarian): 3.92 µM
- GI50 (DU-145 prostate): 1.8 µM
- TGI (DU-145 prostate): 3.25 µM
- GI50 (SNB-75 CNS): 1.41 µM
- TGI (SNB-75 CNS): 2.9 µM
- GI50 (COLO 205 colon): 2.26 µM
- TGI (COLO 205 colon): 4.76 µM
- GI50 (SF-539 CNS): 1.74 µM
- TGI (SF-539 CNS): 3.26 µM
- GI50 (UO-31 renal): 1.41 µM
- TGI (UO-31 renal): 2.75 µM
- GI50 (UACC-62 melanoma): 1.77 µM
- TGI (UACC-62 melanoma): 3.25 µM
- GI50 (HL-60(TB) leukemia): 2.02 µM
- TGI (HL-60(TB) leukemia): 4.51 µM
- GI50 (PC-3 prostate): 1.57 µM
- TGI (PC-3 prostate): 3.19 µM
- GI50 (ACHN renal): 1.7 µM
- TGI (ACHN renal): 3.06 µM
- GI50 (MOLT-4 leukemia): 2.34 µM
- TGI (MOLT-4 leukemia): 6.17 µM
- GI50 (SN12C renal): 1.67 µM
- TGI (SN12C renal): 3.21 µM
- GI50 (NCI-H460 lung): 1.85 µM
- TGI (NCI-H460 lung): 3.53 µM
- GI50 (OVCAR-3 ovarian): 1.78 µM
- TGI (OVCAR-3 ovarian): 3.29 µM

Compound: Cc1nccn1CC1CCc2c(c3ccccc3n2C)C1=O (stereo not drawn)
- GI50 (BT-549 breast): 77.3 µM
- GI50 (OVCAR-8 ovarian): 49.8 µM
- GI50 (MDA-MB-435): 90.2 µM
- GI50 (786-0 renal): 78.8 µM
- GI50 (OVCAR-5 ovarian): 95.3 µM
- GI50 (SF-295 CNS): 39.1 µM
- TGI (SF-295 CNS): 60.9 µM
- GI50 (HT29 colon): 27.9 µM
- TGI (HT29 colon): 49.2 µM
- GI50 (SK-MEL-5 melanoma): 66.8 µM
- GI50 (HCT-116 colon): 65.6 µM
- GI50 (U251 CNS): 81 µM
- GI50 (SNB-75 CNS): 56.5 µM
- GI50 (COLO 205 colon): 78.7 µM
- GI50 (SF-539 CNS): 73.7 µM
- GI50 (UO-31 renal): 78.5 µM
- GI50 (UACC-257 melanoma): 42.3 µM
- TGI (UACC-257 melanoma): 64.3 µM
- GI50 (SN12C renal): 87.9 µM
- GI50 (NCI-H460 lung): 45.7 µM
- TGI (NCI-H460 lung): 68.1 µM
- GI50 (T-47D breast): 71.1 µM
- GI50 (OVCAR-3 ovarian): 90.3 µM
